Experimental data from patent US6136847A, “Water-soluble trioxanes as potent and safe antimalarial agents” (Johns Hopkins University, priority 1999, dated 2000).
Values after ≈ are worked out from the molar mass of the structure shown. Where two headings read alike, the source gives them in different places. Each block holds one molecule with its values, some of them ahead of it.

Legend:
rats = settings: high doses; cited from earlier work
erythrocytes = test: Hemolysis of erythrocytes on daily IV administration to rats for 14 days; assay type: in vivo, rat; settings: daily for 14 days, artelinic acid even at a dose four-fold less than MHP-34a
Text: 4. They are nontoxic in therapeutic dose range.

[1] = Water solubility in pH 7.4 aqueous solution; assay type: physicochemical
P. berghei = test: In vivo antimalarial assay, mice infected with P. berghei malaria; settings: Plasmodium berghei
Description: (§1) The protozoan Plasmodium falciparum is a causative agent of malaria, the single most critical infectious disease of mankind. The in vitro antimalarial activity of the C3 -substituted trioxanes was determined according to the method described in Posner et al. (13). The in vivo antimalarial activity was determined as described in Peters et al. (14).

Plasmodium falciparum = test: In vitro antimalarial assay (Plasmodium falciparum); assay type: cell-based; settings: for IC50: Plasmodium falciparum
Description: as §1
Tables 1 and 2 present a tabulation of a number of compounds which have been synthesized along with the IC50 (in nM).

[2] = test system: mouse neuroblastoma cells; settings: cited from earlier work
[3] = IV, mice infected with P. berghei, read-out: ED90, IV administration
[4] = in vitro, read-out: In vitro antimalarial assay: IC50
[5] = C3-Aryl C12-Methoxy Trioxanes, Expansion data (quadruplicate measurements), read-out: Antimalarial Activity, IC50 (Table 1)
[6] = C3-Substituted C12-Methoxy Trioxanes, Expansion data (quadruplicate measurements), read-out: Antimalarial Activity, IC50 (Table 2)

Compound: CO[C@H]1O[C@@H]2O[C@@]3(C)CC[C@H]4[C@H](C)CC[C@@H]([C@H]1C)[C@@]24OO3 [artemether]
neurotoxicity in rats (rats): neurotoxicity has been seen

solubility [1]: ~90 mM (≈ 30.1 mg/mL)
IC50 (Plasmodium falciparum; [4]): 1020 nM
Compound: CO[C@@H]1O[C@@]2(c3ccc(C(=O)O)cc3)CC[C@H]3CCCC[C@]31OO2 (relative stereo) [MHP-34a, 3-(4'-Carboxyphenyl)-12α-methoxy Trioxane]
hemolysis of erythrocytes (erythrocytes): no hemolysis of erythrocytes
ED50 (P. berghei; po, read-out: In vivo antimalarial assay: ED50, oral): 9.5 mg/kg
ED50 (P. berghei; sc, read-out: In vivo antimalarial assay: ED50, subcutaneous): 19.5 mg/kg
ED90 (P. berghei; sc, read-out: In vivo antimalarial assay: ED90, subcutaneous): 92 mg/kg/day
ED90 (P. berghei; [3]): 60 mg/kg/day
ED90 (P. berghei; oral, mice infected with P. berghei, read-out: In vivo antimalarial assay: ED90, oral): 46 mg/kg/day

IC50 (Plasmodium falciparum; [5]): 30 nM
Compound: CO[C@H]1O[C@@]2(c3ccc(F)cc3)CC[C@H]3CCCC[C@]31OO2 (relative stereo) [9b]

IC50 (Plasmodium falciparum; [4]): 47 nM
Compound: O=C(O)c1ccc(CO[C@@H]2O[C@@]3(c4ccc(F)cc4)CC[C@H]4CCCC[C@]42OO3)cc1 (relative stereo) [(p-Carboxy)benzyloxy Trioxane (α)-7a]

IC50 (Plasmodium falciparum; [5]): 65 nM
Compound: CO[C@@H]1O[C@@]2(c3ccc(F)cc3)CC[C@H]3CCCC[C@]31OO2 (relative stereo) [9a]

IC50 (Plasmodium falciparum; [6]): 320 nM
Compound: CO[C@@H]1O[C@@]2(CF)CC[C@H]3CCCC[C@]31OO2 (relative stereo) [118a]

IC50 (Plasmodium falciparum; [5]): 600 nM
Compound: CO[C@@H]1O[C@@]2(c3ccco3)CC[C@H]3CCCC[C@]31OO2 (relative stereo) [compound 13]

IC50 (Plasmodium falciparum; [5]): 76 nM
Compound: CO[C@@H]1O[C@@]2(c3ccc(-c4ccccc4)cc3)CC[C@H]3CCCC[C@]31OO2 (relative stereo) [8a]

IC50 (Plasmodium falciparum; [4]): 36 nM
Compound: C[C@H]1[C@H](c2cccn2CC(=O)O)O[C@@H]2O[C@@]3(C)CC[C@H]4[C@H](C)CC[C@@H]1[C@@]24OO3 [MHP-153, 10a-(1'-(Carboxymethyl)pyrrol-2'-yl)-10-deoxoartemisinin]

IC50 (Plasmodium falciparum; [5]): 38 nM
Compound: CO[C@H]1O[C@@]2(c3ccccc3)CC[C@H]3CCCC[C@]31OO2 (relative stereo) [16b]

IC50 (Plasmodium falciparum; printed as In vivo, read-out: In vitro antimalarial assay: IC50): 9.1 nM
Compound: CCOC(=O)Cn1cccc1[C@@H]1O[C@@H]2O[C@@]3(C)CC[C@H]4[C@H](C)CC[C@@H]([C@H]1C)[C@@]24OO3 [MHP-84, 10a-(1'-(Ethoxycarbonylmethyl)pyrrol-2'-yl)-10-deoxoartemisinin]

IC50 (Plasmodium falciparum; [4]): 10 nM
Compound: C[C@@H]1CC[C@H]2[C@@H](C)C(=O)O[C@@H]3O[C@@]4(C)CC[C@@H]1[C@]32OO4 [Artemisinin, artemisinin, reference compound]

IC50 (Plasmodium falciparum; [5]): 15 nM
Compound: CO[C@H]1O[C@@]2(c3ccc(CO)cc3)CC[C@H]3CCCC[C@]31OO2 (relative stereo) [12b]

IC50 (Plasmodium falciparum; [5]): 34 nM
Compound: CO[C@H]1O[C@@]2(c3ccc(F)cc3C)CC[C@H]3CCCC[C@]31OO2 (relative stereo) [10b]

IC50 (Plasmodium falciparum; [6]): 53 nM
Compound: CO[C@H]1O[C@@]2(c3ccc(C(F)(F)F)cc3)CC[C@H]3CCCC[C@]31OO2 (relative stereo) [120b]

solubility [1]: ~2 mM (≈ 0.837 mg/mL)
Compound: C[C@H]1[C@@H](OCc2ccc(C(=O)O)cc2)O[C@@H]2O[C@@]3(C)CC[C@H]4[C@H](C)CC[C@@H]1[C@@]24OO3 [artelinic acid, Artelinic acid, reference compound]
hemolysis of erythrocytes (erythrocytes): time-dependent hemolysis
ED50 (P. berghei; oral, mice infected with P. berghei, comparator, read-out: SD50, oral): 56 mg/kg

Compound: C[C@H]1[C@@H](O)O[C@@H]2O[C@@]3(C)CC[C@H]4[C@H](C)CC[C@@H]1[C@@]24OO3 [dihydroartemesisin, Dihydroartemisinin]
neurotoxicity in mouse neuroblastoma cells [2]: neurotoxicity has been seen

IC50 (Plasmodium falciparum; [4]): 40 nM
Compound: O=C(O)c1ccc(CO[C@H]2O[C@@]3(c4ccc(F)cc4)CC[C@H]4CCCC[C@]42OO3)cc1 (relative stereo) [(p-Carboxy)benzyloxy Trioxane (β)-7a]

IC50 (Plasmodium falciparum; [5]): 68 nM
Compound: CO[C@H]1O[C@@]2(c3ccc(-c4ccccc4)cc3)CC[C@H]3CCCC[C@]31OO2 (relative stereo) [8b]

IC50 (Plasmodium falciparum; [6]): 160 nM
Compound: CO[C@H]1O[C@@]2(CF)CC[C@H]3CCCC[C@]31OO2 (relative stereo) [118b]

IC50 (Plasmodium falciparum; [5]): 99 nM
Compound: CO[C@@H]1O[C@@]2(c3ccc(F)cc3C)CC[C@H]3CCCC[C@]31OO2 (relative stereo) [10a]

IC50 (Plasmodium falciparum; [5]): > 2500 nM
Compound: COc1ccc(C23CCC4CCCCC4(OO2)C(OC)O3)cc1 (stereo not drawn) [compound 11]

IC50 (Plasmodium falciparum; [5]): 100 nM
Compound: CO[C@@H]1O[C@@]2(c3ccccc3)CC[C@H]3CCCC[C@]31OO2 (relative stereo) [16a]

IC50 (Plasmodium falciparum; [5]): 78 nM
Compound: CO[C@@H]1O[C@@]2(c3ccc(CO)cc3)CC[C@H]3CCCC[C@]31OO2 (relative stereo) [12a]

Compound: COC1OC2(CCC(C)C)CCC3CCCCC31OO2 (stereo not drawn) [C3 -(CH3)2 CHCH2 CH2 analog]
potency increased by a factor of, over the C3 methyl analog (Plasmodium falciparum; relative to C3 methyl analog): 5

IC50 (Plasmodium falciparum; [6]): 39 nM
Compound: CO[C@@H]1O[C@@]2(c3ccc(C(F)(F)F)cc3)CC[C@H]3CCCC[C@]31OO2 (relative stereo) [120a]

solubility [1]: ~60 mM (≈ 20.1 mg/mL)
IC50 (Plasmodium falciparum; [4]): 150 nM
Compound: CO[C@H]1O[C@@]2(c3ccc(C(=O)O)cc3)CC[C@H]3CCCC[C@]31OO2 (relative stereo) [MHP-34b, 3-(4'-Carboxyphenyl)-12β-methoxy Trioxane]
ED90 (P. berghei; [3]): 60 mg/kg/day

IC50 (Plasmodium falciparum; [4]): 570 nM
Compound: C[C@H]1[C@H](C(=O)O)O[C@@H]2O[C@@]3(C)CC[C@H]4[C@H](C)CC[C@@H]1[C@@]24OO3 [MHP-108, 10α-Carboxy-10-deoxoartemisinin]
